≈ marks a conversion by molar mass, not a printed value. Read-outs that look alike come from different tables or passages of the source.
What was measured:
[1] = n-octanol-water partition coefficient (logP), shake flask method; assay type: physicochemical
[2] = Solubility in water and phosphate buffers
From the text: This study aims to compare the influence of amino acid structure on the physicochemical properties of NSAID salts with the isopropyl ester of amino acids.

[3] = pKa / pKB by potentiometric acid-base titration and formation constant log(KS); conditions: for Log(KS) formation constant: calculated from pKA of acid and pKB of base
Procedure: Determination of formation constant pKs
Zabrze, Poland). For the measurement of pKA acids, 0.1 M NaOH was used. In order to
ester hydrochloride, HCl aqueous solution, was added in an amount that allowed reach-
After that, an acid-base titration was made out by adding dropwise 5 mM

Escherichia coli = assay: Disc diffusion antimicrobial susceptibility test, Escherichia coli; assay type: cell-based; set-up: key to Inhibition diameter: -: no growth of the organism; conditions: for zone of inhibition at 200000 µg/mL / zone of inhibition at 400000 µg/mL / zone of inhibition at 600000 µg/mL: Escherichia coli, 24 h, read-out: Inhibition diameter
Procedure: (§1) The plates were incubated for 24 h at 37 °C.

[4] = Thermogravimetric analysis (thermal stability); conditions: for TDTGmax, maximum decomposition temperature: DTG
Procedure: The thermal stabilities of the obtained NSAIDs isopropyl ester amino acid salts were investigated. […] The beginning of thermal degradation was evaluated based on the value of onset of the TG curve, which occurs in the first phase of the process. […]
Thermogravimetric analysis (TG)
Thermogravimetric analysis was carried out using Netzsch Proteus Thermal Analy- […]
Samples of 5–8 mg were loaded in Al2O3 […]
ment was performed in an air atmosphere (25 cm3min−1) with nitrogen flow (10 cm3min−1) […]
Differential scanning calorimetry (DSC)
Phase transformation temperatures were determined on a PerkinElmer DSC-7 (Rot-gau, Germany). The samples of 3–5 mg were loaded on the aluminum pan with a crimped lid. Measurements were carried out in a nitrogen atmosphere (20 cm3 min-1). The rate of heating/cooling was 5°C min-1. […]
tained for 30 min inside the furnace, then cooled to 0°C to condition the sample and the crucible. After that, heating was conducted to the specified temperature, followed by cool-ing. Unless otherwise stated, two complete cycles of heating and cooling were performed.
The specified maximum temperature was individual for each compound, determined from TG analysis, and it was at least 10°C lower than the onset decomposition tempera-ture. Temperatures reported from DSC data are curve peaks, the melting points being endothermic upon heating and crystallization point being exothermic upon cooling. Lead, indium, tin, and zinc were used as standards to calibrate the temperature. Indium was used for enthalpy measurement calibration. […]

Micrococcus Luteus = assay: Disc diffusion antimicrobial susceptibility test, Micrococcus luteus; assay type: cell-based; set-up: key to Inhibition diameter: -: no growth of the organism; conditions: for zone of inhibition at 600000 µg/mL / zone of inhibition at 800000 µg/mL / zone of inhibition at 25000 µg/mL / zone of inhibition at 50000 µg/mL / zone of inhibition at 100000 µg/mL / zone of inhibition at 200000 µg/mL / zone of inhibition at 400000 µg/mL: Micrococcus luteus, 24 h, read-out: Inhibition diameter; for zone of inhibition at 600000 µg/mL: solution transferred to disc 600 mg cm^−3; for zone of inhibition at 800000 µg/mL: solution transferred to disc 800 mg cm^−3
[5] = Solubility in organic solvents (modified Vogel's method); conditions: 25 °C
[6] = tested on: Staphylococcus epidermidis; assay: Disc diffusion antimicrobial susceptibility test, Staphylococcus epidermidis; assay type: cell-based; set-up: key to Inhibition diameter: -: no growth of the organism
Procedure: as §1

[7] = n-octanol-water, shake flask, read-out: LogP
[8] = deionized water, 25 °C, AS = unmodified acid
[9] = pH 5.4, 25 °C, AS = unmodified acid
[10] = pH 7.4, 25 °C, AS = unmodified acid
[11] = solution transferred to disc 200 mg cm^−3
[12] = solution transferred to disc 400 mg cm^−3
[13] = solution transferred to disc 600 mg cm^−3
[14] = solution transferred to disc 25 mg cm^−3
[15] = solution transferred to disc 50 mg cm^−3
[16] = solution transferred to disc 100 mg cm^−3
[17] = TG, air atmosphere, 10 °C min−1
[18] = Staphylococcus epidermidis, 24 h, solution transferred to disc 600 mg cm^−3, read-out: Inhibition diameter
[19] = Staphylococcus epidermidis, 24 h, solution transferred to disc 800 mg cm^−3, read-out: Inhibition diameter
[20] = solution transferred to disc 1000 mg cm^−3
[21] = solution transferred to disc 800 mg cm^−3

Row | Compound | logP [1, 7] | Solubility in Water, as active substance [2, 8] [gAS dm^−3] | Solubility in Phosphate Buffer pH = 5.4, as active substance [2, 9] [gAS dm^−3] | solubility thermodynamic ([2]; pH 5.4, aqueous buffer) [mg/mL] | solubility thermodynamic ([2]; pH 7.4, aqueous buffer) [mg/mL] | solubility thermodynamic ([2]; water) [mg/mL] | zone of inhibition at 400000 µg/mL (Escherichia coli; [12]) [mm] | zone of inhibition at 600000 µg/mL (Escherichia coli; [13]) [mm] | Inhibition diameter (Escherichia coli; [14]) | Inhibition diameter (Escherichia coli; [15]) | Inhibition diameter (Escherichia coli; [16]) | TDTGmax, maximum decomposition temperature ([4]; air atmosphere, 10 °C min−1) [°C] | zone of inhibition at 600000 µg/mL (Micrococcus Luteus) [mm] | zone of inhibition at 800000 µg/mL (Micrococcus Luteus) [mm] | Inhibition diameter [6, 14] | Inhibition diameter [6, 15] | Inhibition diameter [6, 16] | Inhibition diameter [6, 11] | Inhibition diameter [6, 12] | zone of inhibition at 400000 µg/mL (Micrococcus Luteus; [12]) [mm] | also measured
1 | CC[C@H](C)[C@H](N)C(=O)OC(C)C.O=C(O)c1ccccc1O [[L-IleOiPr][SA], L-isoleucine isopropyl ester salicylate] | 1.6 ± 0.034 | 11.793 ± 0.422 | 8.581 ± 0.015 | 19.281 ± 0.015 | 29.55 ± 0.041 | 26.5 ± 0.422 | 7.3 ± 0.3 | 13.7 ± 0.7 | - | - | - | 202.4 | 10.8 ± 0.5 | 12.4 ± 0.4 | - | - | - | - | - |  | Solubility in Phosphate Buffer pH = 7.4, as active substance [2, 10]: 13.149 ± 0.041 gAS dm^−3; Log(KS) formation constant [3]: 7.25; zone of inhibition at 200000 µg/mL (Escherichia coli; [11]): 6.2 ± 0.1 mm; TTGonset, the onset of the thermal degradation [4, 17]: 144.2 °C; Inhibition diameter (Micrococcus Luteus; [14]): -; Inhibition diameter (Micrococcus Luteus; [15]): -; Inhibition diameter (Micrococcus Luteus; [16]): -; Inhibition diameter (Micrococcus Luteus; [11]): -; Inhibition diameter (Micrococcus Luteus; [12]): -; Solubility in Chloroform (39.1) [5]: ○ (soluble >100 mg cm^−3); Solubility in DMSO (45.1) [5]: ○ (soluble >100 mg cm^−3); Solubility in Dichloromethane (40.7) [5]: ○ (soluble >100 mg cm^−3); Solubility in Diethyl Ether (34.5) [5]: ○ (soluble >100 mg cm^−3); Solubility in Ethanol (59.1) [5]: ○ (soluble >100 mg cm^−3); Solubility in Ethyl Acetate (38.1) [5]: ○ (soluble >100 mg cm^−3); Solubility in Hexane (31.0) [5]: ● (insoluble <33 mg cm^−3); Solubility in Toluene (33.9) [5]: ○ (soluble >100 mg cm^−3); zone of inhibition at 600000 µg/mL [6, 18]: 7.3 ± 0.4 mm; zone of inhibition at 800000 µg/mL [6, 19]: 10.5 ± 0.3 mm
2 | CC(C(=O)O)c1cccc(C(=O)c2ccccc2)c1 (racemic) [KETO, (R,S)-ketoprofen, reference compound] | 1.577 ± 0.01 |  |  |  |  |  |  |  | - | - | - |  | 13.3 ± 0.2 | 14.2 ± 0.1 | - | - | - | - | - | 12.5 ± 0.2 | pKa [3]: 4.11; Inhibition diameter (Escherichia coli; [11]): -; Inhibition diameter (Escherichia coli; [12]): -; Inhibition diameter (Escherichia coli; [13]): -; Inhibition diameter (Escherichia coli; [20]): -; zone of inhibition at 25000 µg/mL (Micrococcus Luteus; [14]): 8.3 ± 0.3 mm; zone of inhibition at 50000 µg/mL (Micrococcus Luteus; [15]): 9.6 ± 0.2 mm; zone of inhibition at 100000 µg/mL (Micrococcus Luteus; [16]): 10.2 ± 0.2 mm; zone of inhibition at 200000 µg/mL (Micrococcus Luteus; [11]): 11.1 ± 0.4 mm; Inhibition diameter [6, 13]: -; Inhibition diameter [6, 21]: -; Inhibition diameter [6, 20]: -
3 | O=C(O)c1ccccc1O [SA, salicylic acid, reference compound] |  |  |  | 3.862 ± 0.005 (≈ 28 mM) | 5.757 ± 0.024 (≈ 41.7 mM) | 3.795 ± 0.004 (≈ 27.5 mM) | 6.4 ± 0.1 | 11 ± 0.8 | - | - | - | 198.8 | 8.7 ± 0.8 | 9.4 ± 0.8 | - | - | - | - |  | 7.4 ± 0.4 | logP [1]: 1.32 ± 0.018; Solubility in Water, as active substance [2]: 3.795 ± 0.004 gAS dm^−3; Solubility in Phosphate Buffer pH = 5.4, as active substance ([2]; pH 5.4): 3.862 ± 0.005 gAS dm^−3; Solubility in Phosphate Buffer pH = 7.4, as active substance ([2]; pH 7.4): 5.757 ± 0.024 gAS dm^−3; zone of inhibition at 200000 µg/mL (Escherichia coli; [11]): 6.1 ± 0.1 mm; TTGonset, the onset of the thermal degradation [4]: 146.2 °C; Inhibition diameter (Micrococcus Luteus; [14]): -; Inhibition diameter (Micrococcus Luteus; [15]): -; Inhibition diameter (Micrococcus Luteus; [16]): -; Inhibition diameter (Micrococcus Luteus; [11]): -; concentration from which the inhibitory effect was observed ([6]; S. epidermidis): ≥ 400 mg cm^−3; zone of inhibition at 400000 µg/mL ([6]; Staphylococcus epidermidis, 24 h, solution transferred to disc 400 mg cm^−3, read-out: Inhibition diameter): 6.2 ± 0.1 mm; zone of inhibition at 600000 µg/mL [6, 18]: 7 ± 0.2 mm; zone of inhibition at 800000 µg/mL [6, 19]: 8.6 ± 0.3 mm
4 | CC(C)OC(=O)[C@@H](N)[C@@H](C)O.O=C(O)c1ccccc1O [[L-ThrOiPr][SA], L-threonine isopropyl ester salicylate] | 1.55 ± 0.021 | 17.925 ± 0.241 | 13.978 ± 0.018 | 30.189 ± 0.018 | 40.76 ± 0.125 | 38.71 ± 0.241 | 7.3 ± 0.2 | 9.3 ± 0.4 | - | - | - | 191.4 | 8.7 ± 0.5 | 10.2 ± 0.7 | - | - | - | - | - | 8.1 ± 0.1 | Solubility in Phosphate Buffer pH = 7.4, as active substance [2, 10]: 18.777 ± 0.125 gAS dm^−3; Log(KS) formation constant [3]: 7.94; Inhibition diameter (Escherichia coli; [11]): -; TTGonset, the onset of the thermal degradation [4, 17]: 127.2 °C; concentrations at which the antimicrobial effect was observed (Micrococcus Luteus; M. Luteus): in all tested concentration ranges; zone of inhibition at 25000 µg/mL (Micrococcus Luteus; [14]): 6.3 ± 0.1 mm; zone of inhibition at 50000 µg/mL (Micrococcus Luteus; [15]): 6.6 ± 0.2 mm; zone of inhibition at 100000 µg/mL (Micrococcus Luteus; [16]): 7 ± 0.1 mm; zone of inhibition at 200000 µg/mL (Micrococcus Luteus; [11]): 7.6 ± 0.2 mm; Solubility in Chloroform (39.1) [5]: ○ (soluble >100 mg cm^−3); Solubility in DMSO (45.1) [5]: ○ (soluble >100 mg cm^−3); Solubility in Dichloromethane (40.7) [5]: ○ (soluble >100 mg cm^−3); Solubility in Diethyl Ether (34.5) [5]: ● (insoluble <33 mg cm^−3); Solubility in Ethanol (59.1) [5]: ○ (soluble >100 mg cm^−3); Solubility in Ethyl Acetate (38.1) [5]: ○ (soluble >100 mg cm^−3); Solubility in Hexane (31.0) [5]: ● (insoluble <33 mg cm^−3); Solubility in Toluene (33.9) [5]: ● (insoluble <33 mg cm^−3); Inhibition diameter [6, 13]: -; Inhibition diameter [6, 21]: -; Inhibition diameter [6, 20]: -

Reference: paper PMC9693575, “Isopropyl Amino Acid Esters Ionic Liquids as Vehicles for Non-Steroidal Anti-Inflammatory Drugs in Potential Topical Drug Delivery Systems with Antimicrobial Activity” (International Journal of Molecular Sciences, 2022)
